Experiments:
MK2 [1] = biological target: T1, MK2 (Homo sapiens, UniProt P49137); experiment: MK2 degradation in human THP-1 monocytic cells (MSD, 24 h); assay type: cell-based; design: endogenous in cells; conditions: for Dmax: THP-1, THP-1 cells; for DC50: THP-1 cells, read-out: MK2 MSD THP-1 degradation 24 h GMean External Abs DC50
Procedure, shortened: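 THP-1 cells (200,000/well) treated 24 h at 37 °C with compound dilution series (up to 10 points, 0.1% DMSO). MK2 in RIPA lysates quantified by MSD sandwich immunoassay. DC50 from 4-parameter logistic fit, DMSO-treated cells as high and lysis buffer as low signal.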

MK2 [2] = biological target: T1, MK2; experiment: MK2 degradation in human SW1353 cells (MSD, 24 h); assay type: cell-based; design: endogenous in cells; host or cells: SW-1353 (ATCC HTB-94); key to MK2 MSD SW 1353 24 h Dmax %: —: “-”=not tested or inactive; conditions: for Dmax: read-out: MK2 MSD SW 1353 24 h Dmax %; for DC50: read-out: MK2 MSD SW1353 degradation 24 h GMean External Abs DC50
Procedure, shortened: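 SW1353 chondrosarcoma cells were treated with up to 10-point serial dilutions (0.1% DMSO) for 24 h at 37 °C, then lysed in RIPA buffer. MK2 levels were quantified by MSD sandwich immunoassay; DC50 came from a 4-parameter logistic fit normalised to DMSO-treated cells (high) and lysis buffer (low).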

T1 sequence (P49137 whole entry): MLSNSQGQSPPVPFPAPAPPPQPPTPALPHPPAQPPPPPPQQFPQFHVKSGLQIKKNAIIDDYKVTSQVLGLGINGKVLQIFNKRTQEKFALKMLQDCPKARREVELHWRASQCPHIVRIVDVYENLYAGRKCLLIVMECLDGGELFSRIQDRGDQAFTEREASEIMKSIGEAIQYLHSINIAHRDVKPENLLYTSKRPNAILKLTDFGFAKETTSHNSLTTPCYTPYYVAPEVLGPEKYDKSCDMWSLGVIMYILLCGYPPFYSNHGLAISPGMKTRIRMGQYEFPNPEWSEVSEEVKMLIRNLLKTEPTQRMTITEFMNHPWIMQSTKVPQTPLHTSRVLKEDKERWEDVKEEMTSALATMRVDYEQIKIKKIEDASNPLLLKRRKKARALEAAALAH

Dmax (MK2 [1]) | DC50 (MK2 [1]) | Dmax (MK2 [2]) | DC50 (MK2 [2]) | MK2 MSD SW 1353 24 h Dmax % (MK2 [2]) | SMILES
> 75% | < 0.001 µM | > 75% | < 0.001 µM |  | C[C@@H]1CNc2c(sc3ccc4nc(N5CCN(C6CC7(CCN(c8ccc9c(c8)n(C)c(=O)n9C8CCC(=O)NC8=O)CC7)C6)CC5)ccc4c23)C(=O)N1 (stereo partly drawn) [Compound I-451]
> 75% | < 0.001 µM | > 75% | < 0.001 µM |  | COc1ccc2c(c1CCN1CCN(c3ccc(-c4cc(-c5cc6c([nH]5)C5(CC5)CNC6=O)ccn4)cc3)CC1)n(C)c(=O)n2C1CCC(=O)NC1=O (stereo not drawn) [Compound I-430]
50 to 75% | 0.01 to 0.1 µM | > 75% | 0.001 to 0.01 µM |  | Cn1c(=O)n(C2CCC(=O)NC2=O)c2ccc(N3CCC(CN4CCN(c5cc(-c6ccc7cc[nH]c7c6)cc(-n6cc(-c7ccc8c(c7)CCNC8=O)c(N)n6)c5)CC4)CC3)cc21 (stereo not drawn) [Compound I-461]
< 50% | > 0.1 µM | < 50% | > 0.1 µM |  | Cc1cc(N2CCN(CC3CCN(c4ccc5c(c4)n(C)c(=O)n5C4CCC(=O)NC4=O)CC3)CC2)ccc1-c1cc(-c2cc3c([nH]2)C2(CC2)CNC3=O)ccn1 (stereo not drawn) [Compound I-217]
> 75% | 0.01 to 0.1 µM | > 75% | 0.01 to 0.1 µM |  | C[C@@H]1CNc2c(sc3ccc4nc(-c5cccc(N6CCN(CCCCCCCCCCc7cccc8c7n(C)c(=O)n8C7CCC(=O)NC7=O)CC6)c5)ccc4c23)C(=O)N1 (stereo partly drawn) [Compound I-177]
> 75% | 0.001 to 0.01 µM | > 75% | 0.001 to 0.01 µM |  | Cc1ccc(NC(=O)c2cccc(C(F)(F)F)c2)cc1N1Cc2cnc(Nc3ccc(N4CCN(CCCCC(=O)N[C@H](C(=O)N5C[C@H](O)C[C@H]5C(=O)N[C@@H](C)c5ccc(-c6scnc6C)cc5)C(C)(C)C)CC4)nc3)nc2N(C)C1=O [Compound I-463]
> 75% | 0.01 to 0.1 µM | > 75% | 0.01 to 0.1 µM |  | CN1CC2(CNC(=O)c3c2[nH]c2c3CCc3cnc(-c4ccc(N5CCN(CCCCc6cccc7c6n(C)c(=O)n7C6CCC(=O)NC6=O)CC5)cc4F)cc3-2)C1 (stereo not drawn) [Compound I-154]
> 75% | < 0.001 µM | > 75% | < 0.001 µM |  | Cn1c(=O)n(C2CCC(=O)NC2=O)c2ccc(N3CC(CN4CCN(c5ccc(-c6cc(-c7cc8c([nH]7)C7(CC7)CNC8=O)ccn6)cc5)CC4)C3)cc21 (stereo not drawn) [Compound I-189]
< 50% | 0.001 to 0.01 µM | 50 to 75% | 0.001 to 0.01 µM |  | Cc1cc(-c2ccc3c(ccc4sc5c(c43)NC[C@@H](C)NC5=O)n2)cnc1N1CCN(CCCc2ccc3c(c2)n(C)c(=O)n3C2CCC(=O)NC2=O)CC1 (stereo partly drawn) [Compound I-258]
> 75% | 0.001 to 0.01 µM | > 75% | 0.001 to 0.01 µM |  | C[C@@H]1CNc2c(sc3ccc4nc(-c5ccc(N6CCN(CC7CCN(c8ccc(N9CCC(=O)NC9=O)cc8)CC7)CC6)nc5)ccc4c23)C(=O)N1 [Compound I-438]
50 to 75% | 0.01 to 0.1 µM | > 75% | 0.001 to 0.01 µM |  | Cn1c(=O)n(C2CCC(=O)NC2=O)c2cccc(CCCN3CCN(c4ccc(-c5cc(-c6cc7c([nH]6)C6(CCCC6)CNC7=O)ccn5)cc4)CC3)c21 (stereo not drawn) [Compound I-191]
> 75% | < 0.001 µM | > 75% | < 0.001 µM |  | C[C@@H]1CNc2c(sc3ccc4nc(-c5cncc(N6CCN(CCCc7ccc8c(c7)n(C)c(=O)n8C7CCC(=O)NC7=O)CC6)c5)ccc4c23)C(=O)N1 (stereo partly drawn) [Compound I-157]
50 to 75% | < 0.001 µM | > 75% | < 0.001 µM |  | Cn1c(=O)n(C2CCC(=O)NC2=O)c2ccc(N3CCC(CN4CCN(c5ccc(-c6cc(-c7cc8c([nH]7)C7(CC7)CNC8=O)ccn6)cn5)CC4)CC3)cc21 (stereo not drawn) [Compound I-243]
< 50% | > 0.1 µM | < 50% | > 0.1 µM |  | C[C@@H]1CNc2c(sc3ccc4nc(N5CCC6(CCN(CC7CCN(c8ccc9c(c8)n(C)c(=O)n9C8CCC(=O)NC8=O)CC7)CC6)CC5)ccc4c23)C(=O)N1 (stereo partly drawn) [Compound I-389]
> 75% | 0.01 to 0.1 µM | > 75% | 0.01 to 0.1 µM |  | C[C@@H]1CNc2c(sc3ccc4nc(-c5cccc(N6CCN(CCCCCCCCCCc7ccc8c(c7)n(C)c(=O)n8C7CCC(=O)NC7=O)CC6)c5)ccc4c23)C(=O)N1 (stereo partly drawn) [Compound I-178]
> 75% | < 0.001 µM | > 75% | 0.001 to 0.01 µM |  | Cn1c(=O)n(C2CCC(=O)NC2=O)c2cccc(N3CCC(CCN4CCN(c5ccc(-c6cc(-c7cc8c([nH]7)CCNC8=O)ccn6)cc5)CC4)CC3)c21 (stereo not drawn) [Compound I-139]

Dmax (MK2 [1]) | DC50 (MK2 [1]) | Dmax (MK2 [2]) | DC50 (MK2 [2]) | MK2 MSD SW 1353 24 h Dmax % (MK2 [2]) | SMILES
 | 0.01 to 0.1 µM | > 75% |  |  | C[C@@H]1CNc2c(sc3ccc4nc(-c5ccc(C#CCCNC(=O)CCCCCCCCCc6cccc7c6n(C)c(=O)n7C6CCC(=O)NC6=O)cc5)ccc4c23)C(=O)N1 (stereo partly drawn) [Compound I-54]
> 75% | < 0.001 µM | > 75% | < 0.001 µM |  | C[C@@H]1CNc2c(sc3ccc4nc(N5CCC(CN6CCC7(CC6)CCN(c6ccc8c(c6)n(C)c(=O)n8C6CCC(=O)NC6=O)CC7)CC5)ccc4c23)C(=O)N1 (stereo partly drawn) [Compound I-391]
< 50% | > 0.1 µM |  | > 0.1 µM | — | Cn1c(=O)n(C2CCC(=O)NC2=O)c2ccc(N3CC(CN4CCN(c5ccc(-c6cc(-c7cc8c(s7)CCNC8=O)ccn6)cc5)CC4)C3)cc21 (stereo not drawn) [Compound I-407]
> 75% | < 0.001 µM | > 75% | < 0.001 µM |  | Cn1c(=O)n(C2CCC(=O)NC2=O)c2ccc(N3CC(CN4CCN(c5ccc(-c6nccc(-c7cc8c([nH]7)C7(CCCC7)CNC8=O)n6)cc5)CC4)C3)cc21 (stereo not drawn) [Compound I-405]
< 50% | > 0.1 µM | < 50% | > 0.1 µM |  | C[C@@H]1CNc2c(sc3ccc4nc(N5CC6(CCN(C7CCN(c8ccc9c(c8)n(C)c(=O)n9C8CCC(=O)NC8=O)CC7)CC6)C5)ccc4c23)C(=O)N1 (stereo partly drawn) [Compound I-393]
< 50% | > 0.1 µM | 50 to 75% | 0.001 to 0.01 µM |  | CCc1cc(-c2cc(-c3cc4c([nH]3)C3(CC3)CNC4=O)ccn2)cc(CC)c1N1CCN(CC2CCN(c3ccc4c(c3)n(C)c(=O)n4C3CCC(=O)NC3=O)CC2)CC1 (stereo not drawn) [Compound I-448]
> 75% | 0.001 to 0.01 µM | > 75% | 0.001 to 0.01 µM |  | C[C@@H]1CNc2c(sc3ccc4nc(-c5cccc(N6CCC(CN7CCC(c8cccc9c(N%10CCC(=O)NC%10=O)cncc89)CC7)CC6)c5)ccc4c23)C(=O)N1 [Compound I-312]
< 50% | > 0.1 µM | < 50% | > 0.1 µM |  | Cn1c(=O)n(C2CCC(=O)NC2=O)c2ccc(N3CCC(CN4CCN(c5ccc6cc(-c7cc(Nc8ccnc(N)n8)cc8cn[nH]c78)oc6c5)CC4)CC3)cc21 (stereo not drawn) [Compound I-454]
> 75% | < 0.001 µM | > 75% | < 0.001 µM |  | Cn1c(=O)n(C2CCC(=O)NC2=O)c2ccc(N3CC(CN4CCN(c5ccc(-c6cc(-c7cc8c([nH]7)C7(CC7)CNC8=O)ccn6)c(F)c5)CC4)C3)cc21 (stereo not drawn) [Compound I-425]
> 75% | < 0.001 µM | > 75% | 0.001 to 0.01 µM |  | C[C@@H]1CNc2c(sc3ccc4nc(-c5cnc(N6CCN(CC7CCN(c8cccc9c8n(C)c(=O)n9C8CCC(=O)NC8=O)CC7)CC6)nc5)ccc4c23)C(=O)N1 (stereo partly drawn) [Compound I-281]
> 75% | 0.001 to 0.01 µM | > 75% | 0.001 to 0.01 µM |  | C[C@@H]1Cc2[nH]c(-c3ccnc(-c4ccc(N5CCC(CN6CCC(c7cccc8c7n(C)c(=O)n8C7CCC(=O)NC7=O)CC6)CC5)cc4)c3)cc2C(=O)N1 (stereo partly drawn) [Compound I-248]
< 50% | > 0.1 µM | 50 to 75% | 0.01 to 0.1 µM |  | C[C@@H]1Cc2oc(-c3ccnc(-c4ccc(N5CCN(CC6CCN(c7cccc8c7n(C)c(=O)n8C7CCC(=O)NC7=O)CC6)CC5)nc4)c3)cc2C(=O)N1 (stereo partly drawn) [Compound I-416]
> 75% | < 0.001 µM | > 75% | < 0.001 µM |  | C[C@@H]1CNc2c(sc3ccc4nc(-c5ccc(N6CCN(CC7CN(c8ccc9c(c8)n(C)c(=O)n9C8CCC(=O)NC8=O)C7)CC6)cc5F)ccc4c23)C(=O)N1 (stereo partly drawn) [Compound I-237]
> 75% | 0.001 to 0.01 µM | > 75% | 0.001 to 0.01 µM |  | C[C@@H]1CNc2c(sc3ccc4nc(-c5ccc(N6CCN(CC7CCN(c8ccc(C9CCC(=O)NC9=O)cc8)CC7)CC6)nc5)ccc4c23)C(=O)N1 (stereo partly drawn) [Compound I-421]
< 50% | > 0.1 µM | < 50% | > 0.1 µM |  | Cn1c(=O)n(C2CCC(=O)NC2=O)c2ccc(N3CCC(CN4CCN(c5ccc6occc6c5-c5cc(Nc6ccnc(N)n6)cc6cn[nH]c56)CC4)CC3)cc21 (stereo not drawn) [Compound I-453]

SMILES | Dmax (MK2 [1]) | DC50 (MK2 [1]) | Dmax (MK2 [2]) | DC50 (MK2 [2]) | MK2 MSD SW 1353 24 h Dmax % (MK2 [2])
Cn1c(=O)n(C2CCC(=O)NC2=O)c2cccc(CCCCCCN3CCC4(CC3)CNC(=O)c3c4[nH]c4c3CCc3cnc(-c5ccccc5F)cc3-4)c21 (stereo not drawn) [Compound I-300] | < 50% | > 0.1 µM | < 50% | > 0.1 µM | 

Source: US20230135894A1, “MK2 DEGRADERS AND USES THEREOF” (Kymera Therapeutics, Inc., priority 2021, published 2023)
